Source: US20240288449A1, “METHODS FOR DIAGNOSING A CANCER- OR ANTIBIOTICS-INDUCED DYSBIOSIS AND THEIR USE FOR IMPROVING CANCER TREATMENT BY IMMUNOTHERAPY” (INSTITUT GUSTAVE ROUSSY, priority 2021, published 2024)

Legend:
[1] = test system: metastatic clear cell renal cell carcinoma (RCC); assay: NIVOREN trial, second line anti-PD1 in renal cell carcinoma patients; format: in vivo, human
[2] = test system: metastatic bladder cancer; assay: STRONG study, Durvalumab in pre-treated metastatic bladder cancer patients; format: in vivo, human; conditions: 79 patients, 1500 mg iv /4 weeks
Method: Finally, we sought to triplicate the predictive value of sMAdCAM-1 in a subcohort of a Phase 3a trial enrolling pre-treated metastatic bladder cancer patients to receive a fixed dose of 1500 mg of Durvalumab iv (anti-PD-L1 Abs)/4 weeks. In this STRONG study, 79 patients only were analyzed, with an overall median OS of 5.79 months, and a median PFS of 2.79 months. We selected the extreme of the STRONG cohort, 30 Elite patients (OS>6 months, PFS>5 months, PR+CR only) and rapid progressors (n=49, with OS<6 months and PFS<5 months and PD at the first CT scan). In this cohort, the MAdCAM-1 median (min,max) was 158.8 ng/ml (53.41, 244.36).

[3] = test system: MAdCAM-1 (Madcam1 gene expression); assay: Madcam1 gene and protein expression in gut tissues of mice (RT-PCR, IHC, flow cytometry, ELISA); format: in vivo, C57BL/6J mice; conditions: for Madcam1 gene expression in ileal LP / Madcam1 gene expression in mesenteric lymph nodes (mLN): single antibiotic regimen, 7 days conditioning
Method: (§1) Antibiotic treatments. If not indicated otherwise, mice were treated with a broad spectrum antibiotic solution (ATB) containing ampicillin (1 mg/ml), streptomycin (5 mg/ml), and colistin (1 mg/ml) (Sigma-Aldrich) added to the sterile drinking water of mice. In experiments where single antibiotics were used the concentrations were ampicillin (1 mg/ml), streptomycin (5 mg/ml), colistin (1 mg/ml), erythromycin (1 mg/ml) or ciprofloxacin (0.1 mg/ml) respectively. Solutions and bottles were changed 2 times weekly. Antibiotic activity, in the experiments where the antibiotic mix was used, was confirmed by cultivating fecal pellets resuspended in BHI+15% glycerol at 0.1 g/ml on COS (Columbia Agar with 5% Sheep Blood) plates for 48 h at 37° C. in aerobic and anaerobic conditions weekly. Duration of ATB treatment was slightly different (7-14 days before aPD-1 treatment) based on the experimental settings and is indicated in results for each experiment. In brief, to compromise the efficacy of anti-PD-1 mAb, mice were treated with ATB for one to two weeks before tumor implantation and ATB was continued throughout the experiment or discontinued on the day of anti PD-1 treatment initiation as indicated in the individual experiment. In the context of fecal microbial transplantation experiments, mice received 3 days of ATB before undergoing fecal microbial transplantation the next day by oral gavage using animal feeding needles. In the TC-1 model, ATB treatment was started 3 days before tumor injection and discontinued one day before the first bacterial gavage.
Oral bacterial gavage with commensal species. Akkermansia muciniphila CSUR P2261, and A. indistinctus CSUR P723 were provided by the Institut hospitalo-universitaire Méditerranée Infection, Marseille, France. Enterococcus hirae 13144 isolates were originally isolated from spleens or mesenteric lymph nodes of SPF mice treated with CTX at Gustave Roussy Cancer Campus. A. muciniphila was grown on COS plates in an anaerobic atmosphere created using 3 anaerobic generators (Biomerieux) at 37° C. for at least 72 h. E. hirae 13144 were grown on 5% sheep blood enriched Columbia agar for 24 h at 37° C. in aerobic conditions. Colonization of ATB pre-treated or GF C57BL/6 mice was performed by oral gavage with 100 μl of suspension containing 1×10^8 bacteria. For bacterial gavage: suspensions of […] were obtained using a fluorescence spectrophotometer (Eppendorf) at an optical density of 600 nm in PBS. Five bacterial gavages were performed for each mouse, the first 24 h before the first injection of antiPD-1 mAb and subsequently four times on the same day as anti-PD-1 mAb injection. The efficacy of colonization with E. hirae 13144 was confirmed by culturing the feces 48 h post gavage. Fecal pellets were harvested and resuspended in BHI+15% glycerol at 0.1 g/ml. Serial dilutions of feces were plated onto 5% sheep blood enriched Columbia agar and incubated for 48 h at 37° C. in aerobic and anaerobic conditions. After 48 h, single colonies were isolated and Gram staining was performed. The identification of specific bacteria was accomplished using a Matrix-Assisted Laser Desorption/Ionisation Time of Flight (MALDI-TOF) mass spectrometer (Andromas, Beckman Coulter, France).
RNA extraction and rtPCR. Lysis and extraction protocols were identical for human and mouse samples. Tumor or intestinal samples were snap frozen in liquid nitrogen in RLT Plus buffer containing 0.1% beta mercaptoethanol. On the day of extraction samples were thawed at 4° C. and homogenized on a microtube homogenizer (Benchmark Scientific) in RNA free glass bead tubes (Dutscher). Total RNA extraction and genomic DNA removal were performed with the RNeasy Mini kit (Qiagen), following the manufacturer's recommendations. […]

[4] = test system: RORγt+ Treg (Tr17) in MCA205 and 4T1 tumors; assay: Flow cytometry of tumor infiltrating lymphocytes and mLN (Tr17 subsets); format: in vivo, mice; conditions: oral gavage after ATB stop, s.c. MCA205, αPD-1-based therapy
Method: as §1, with “In the context of fecal microbial transplantation experiments, mice received 3 days of ATB before undergoing fecal microbial transplantation the next day by oral gavage using animal feeding needles. In the TC-1 model, ATB treatment was started 3 days before tumor injection and discontinued one day before the first bacterial gavage.” left out
Subcutaneous model of MCA-205 sarcoma, MC38 and RET melanoma. […] Tumor length and width was routinely monitored every 3 times per week by means of a caliper. […]

[5] = NIVOREN trial, N=729 RCC patients

How did the complete responses [1, 5] turn out when Nivolumab: anti-PD1 mAb was run?
Its complete responses is 1.2%.

And the objective response rate [1, 5]?
The objective response rate was 20.8%.

And the partial responses [1, 5]?
Its partial responses is 19.6%.

And the “progressive diseases (PD)” value [1, 5]?
The value was 79.2%.

And the “Best response: Partial response” value ([1]; Overall (n = 212) RCC patients)?
Its value is “(7.1) %”.

And the “Best response: Progressive disease” value ([1]; Overall (n = 212) RCC patients)?
Its value is “(49.7) %”.

With Durvalumab: anti-PD-L1 Abs as the compound, how does the “median PFS” value [2] read?
The value was 2.79 months.

And the “overall median OS” value [2]?
Its value is 5.79 months.

What does the source list for CN[C@H](CC(C)C)C(=O)N[C@H]1C(=O)N[C@@H](CC(N)=O)C(=O)N[C@H]2C(=O)N[C@H]3C(=O)N[C@H](C(=O)N[C@H](C(=O)O)c4cc(O)cc(O)c4-c4cc3ccc4O)[C@H](O)c3ccc(c(Cl)c3)Oc3cc2cc(c3O[C@@H]2O[C@H](CO)[C@@H](O)[C@H](O)[C@H]2O[C@H]2C[C@](C)(N)[C@H](O)[C@H](C)O2)Oc2ccc(cc2Cl)[C@H]1O [vancomycin]?
Madcam1 gene expression in ileal LP ([3]; RT-PCR): upregulated; Madcam1 gene expression in mesenteric lymph nodes (mLN) ([3]; RT-PCR): failed to downregulate

Which results are given for Lactobacillus reuteri?
Madcam1 ileal gene expression ([3]; oral supplementation of FMT recipients): could further influence; Tr17 recruitment promoted by PD1 inhibition [4]: failed to do so

CC[C@H]1OC(=O)[C@H](C)[C@@H](O[C@H]2C[C@@](C)(OC)[C@@H](O)[C@H](C)O2)[C@H](C)[C@@H](O[C@@H]2O[C@H](C)C[C@H](N(C)C)[C@H]2O)[C@](C)(O)C[C@@H](C)C(=O)[C@H](C)[C@@H](O)[C@]1(C)O [erythromycin] was tested. Which “Madcam1 gene expression in mesenteric lymph nodes (mLN)” value (shortened to “Madcam1 gene expression … (mLN)”) ([3]; RT-PCR) did it give?
The value was “downregulate”.

With CC1(C)S[C@@H]2[C@H](NC(=O)[C@H](N)c3ccccc3)C(=O)N2[C@H]1C(=O)O [ampicilline, ampicillin] as the compound, how does the “Madcam1 gene expression … (mLN)” value ([3]; RT-PCR) read?
The value was “downregulate”.

[H]/N=C(/N)N[C@H]1[C@H](O)[C@@H](O)[C@H](O[C@@H]2O[C@@H](C)[C@](O)(C=O)[C@H]2O[C@@H]2O[C@@H](CO)[C@H](O)[C@@H](O)[C@@H]2NC)[C@@H](N/C(N)=N\[H])[C@@H]1O [streptomycin] was tested. Which “Madcam1 gene expression in Peyers' patches (PP)” value ([3]; RT-PCR) did it give?
The value was “downregulated”.

What about the “Madcam1 gene expression in ileal LP” value ([3]; RT-PCR) of the same compound?
The value was “downregulated”.

What about the “Madcam1 gene expression … (mLN)” value ([3]; RT-PCR) of the same compound?
Its value is “downregulated”.
